Experimental data taken from patent US10800757B2, “Inhibitors of TRPC6” (Boehringer Ingelheim International GmbH, priority 2017, dated 2020).
pIC50: −log10 of the molar value. Counter-ions that a name gives are not always drawn.

The compounds below were run against TRPC6 (Homo sapiens (Human), UniProt Q9Y210) (assay: High throughput screening assay: fluorescent calcium (Fluo4/AM) assay of TRPC6 channel activation by GSK1702934A in HEK293/TREx cells). Settings: HEK293/TREx cells stably transfected with TRPC6; agonist GSK1702934A; 7 concentrations 20 μM to 0.027 μM, triplicate.
Sequence of TRPC6 (Q9Y210 whole entry, species assumed): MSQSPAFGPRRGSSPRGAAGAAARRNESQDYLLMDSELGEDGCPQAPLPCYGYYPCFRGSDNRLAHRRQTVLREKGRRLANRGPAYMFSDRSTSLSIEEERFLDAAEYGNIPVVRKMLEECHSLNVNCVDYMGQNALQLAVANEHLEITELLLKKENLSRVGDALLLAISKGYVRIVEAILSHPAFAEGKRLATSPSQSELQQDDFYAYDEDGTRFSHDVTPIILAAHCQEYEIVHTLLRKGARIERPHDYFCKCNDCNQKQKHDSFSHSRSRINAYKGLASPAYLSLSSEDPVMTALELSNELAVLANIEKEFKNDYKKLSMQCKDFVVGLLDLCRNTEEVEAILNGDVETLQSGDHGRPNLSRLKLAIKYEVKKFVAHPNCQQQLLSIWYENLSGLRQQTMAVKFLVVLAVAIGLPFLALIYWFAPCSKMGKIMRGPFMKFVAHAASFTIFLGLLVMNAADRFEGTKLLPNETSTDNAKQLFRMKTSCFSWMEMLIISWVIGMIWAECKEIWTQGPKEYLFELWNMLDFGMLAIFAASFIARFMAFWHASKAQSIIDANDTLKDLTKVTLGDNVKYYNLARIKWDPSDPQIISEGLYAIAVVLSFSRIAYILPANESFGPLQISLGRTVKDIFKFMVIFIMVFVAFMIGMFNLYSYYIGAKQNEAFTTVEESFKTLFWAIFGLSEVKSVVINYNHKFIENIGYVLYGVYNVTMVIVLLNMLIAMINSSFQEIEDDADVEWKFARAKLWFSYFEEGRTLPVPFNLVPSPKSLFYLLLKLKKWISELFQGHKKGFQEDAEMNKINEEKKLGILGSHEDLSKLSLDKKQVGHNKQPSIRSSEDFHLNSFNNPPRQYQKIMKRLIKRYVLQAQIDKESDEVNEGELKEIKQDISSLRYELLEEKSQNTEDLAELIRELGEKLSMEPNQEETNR
Assay type: cell-based
From the text: This screening assay measures TRPC6 (transient receptor potential cation channel, subfamily C, member 6) ion channel activation via addition either of the commercially available DAG ligand analogue OAG (1-oleoyl-2-acetyl-sn-glycerol) or of the TRPC6 agonist 1-[1-(4,5,6,7,8-pentahydrocyclohepta[2,1-d]thiophen-2-ylcarbonyl)-4-piperidyl]-3-hydrobenzimidazol-2-one (GSK1702934A). The assay utilizes a FLIPR fluorescent calcium sensor 4-(6-Acetoxymethoxy-2,7-difluoro-3-oxo-9-xanthenyl)-4′-methyl-2,2′-(ethylenedioxy)dianiline-N,N,N′,N′-tetraacetic acid tetrakis(acetoxymethyl) ester (Fluo4/AM) […]. Changes (increases) in intracellular membrane calcium concentration potential as measured by the fluorescent signal increase during membrane depolarization provide a measurement of channel activity.
The commercially available HEK293/TREx line (Invitrogen) was stably transfected with a TRPC6 construct and screened by conventional calcium imaging to find clones with TRPC6 expression following stimulation with 1 μg/ml tetracycline. These cells were maintained in the growth medium recommended by the manufacturer supplemented with 100 μg/ml hygromycin to promote retention of the TRPC6 construct. After growing to near confluency, cells were plated at a density of ^˜35,000 cells/well in 384 well CellBind plates (Corning) in the presence of 1 μg/ml tetracycline, and allowed to grow for 20-30 hrs. A nearly confluent monolayer resulted. Growth media was removed from the wells and cells were then loaded with […] Fluo4/AM diluted in Ringer's Solution (6.5 g NaCl, 0.42 g KCl, 0.25 g CaCl2) and 0.2 g of sodium bicarbonate; pH 7.4) supplemented with 1% Pluronic F-127 to a final concentration of 0.5 μM and incubated for 60 min, at room temperature. Dye solution was then removed from the cells by inverting plates with a sharp flick, and replaced with 25 μl Ringer's. Following ^˜0.5 hour for recovery from loading, cells were assayed using the Hamamatsu FDSS 6000 system, which permitted illumination at 485 nm. Frames were acquired at a rate of 0.2 Hz. During the assay, the plates were continuously vortexed, with pipette mixing of wells following addition of each reagent. For the screening assay, 26 μl of a diluted compound stock (at 50 μM) was added to each well for 2 minutes following the collection of a short (4 frame) baseline. 13 μl of agonist solution consisting of 125 nM GSK1702934A diluted in high-Ca2+Ringer solution (containing 90 mm Ca2+) was then added to each well, achieving a final concentration of 20 mm Ca2+ and 10 μM test compound. Data was collected for ^˜3 minutes following addition of high Ca2+Ringer. The fluorescent ratio for each well was divided by the initial fluorescent intensity for that well and the overall response was determined by averaging the fluorescent ratio of the last 4 frames acquired during the experiment excepting the final frame. Negative and Positive controls were included on each plate. Negative controls wells consisted of HEK293/TREx TRPC6 cells exposed to assay buffer and agonist solution, but no test compound. Positive control consisted of wells consisted of HEK293/TREx TRPC6 cells exposed to 25 μM 3-[(2-chlorophenoxy)methyl]phenyl piperidyl ketone (Chembridge) diluted in Ringer's solution and agonist solution. These controls defined zero percent and 100 percent block respectively, and intensity of each well was normalized to these values.
Compounds were tested in triplicate at all concentrations. Standard software was used to fit IC50 curves.

Compound	pIC50
COc1cc(C(=O)N2CCN(c3cnc(N)cc3OC)CC2)ncc1Oc1ccccc1 [Compound 5, [4-(6-Amino-4-methoxy-pyridin-3-yl)-piperazin-1-yl]-(4-methoxy-5-phenoxy-pyridin-2-yl)-methanone]	7.57
COC[C@H]1CN(c2cnc(N)cc2OC)CCN1C(=O)c1cc(OC)c(Oc2ccc(F)cc2)cn1 [Compound 55, [(R)-4-(6-Amino-4-methoxy-pyridin-3-yl)-2-methoxymethyl-piperazin-1-yl]-[5-(4-fluoro-phenoxy)-4-methoxy-pyridin-2-yl]-methanone]	6.66
COc1cc(C(=O)N2CCN(c3cnc(N)cc3OC)CC23CC3)ncc1Oc1ccc(F)cc1 [Compound 9, [7-(6-Amino-4-methoxy-pyridin-3-yl)-4,7-diaza-spiro[2.5]oct-4-yl]-[5-(4-fluoro-phenoxy)-4-methoxy-pyridin-2-yl]-methanone]	7.57
COc1cc(C(=O)N2CCC(c3cnc(N)cc3OC)CC2)ncc1OC(C)C [Compound 72, (6-Amino-4-methoxy-3′,4′,5′,6′-tetrahydro-2′H-[3,4′]bipyridinyl-1′-yl)-(5-isopropoxy-4-methoxy-pyridin-2-yl)-methanone]	6.04
COc1cc(C(=O)N2CCC(c3cnc(N)cc3OC)CC2)ncc1OCC1CCC1 [Compound 53, (6-Amino-4-methoxy-3′,4′,5′,6′-tetrahydro-2′H-[3,4′]bipyridinyl-1′-yl)-(5-cyclobutylmethoxy-4-methoxy-pyridin-2-yl)-methanone]	6.68
CCCOc1cnc(C(=O)N2CCC(c3cnc(N)cc3OC)CC2)cc1OC [Compound 46, (6-Amino-4-methoxy-3′,4′,5′,6′-tetrahydro-2′H-[3,4′]bipyridinyl-1′-yl)-(4-methoxy-5-propoxy-pyridin-2-yl)-methanone]	6.80
COc1cc(C(=O)N2CCC(c3cnc(N)cc3OC)CC2)ncc1OCC(C)C(F)(F)F (single isomer, unassigned) [Compound 94b, 4-Methoxy-5-(1-{4-methoxy-5-[3,3,3-trifluoro-2-methylpropoxy]pyridine-2-carbonyl}piperidin-4-yl)-pyridin-2-amine]	6.45
COc1cc(C(=O)N2CCC(c3ccc(N)nn3)CC2)ncc1OCCc1ccccc1 [Compound 73, [4-(6-Amino-pyridazin-3-yl)-piperidin-1-yl]-(4-methoxy-5-phenethyloxy-pyridin-2-yl)-methanone]	5.89
COc1ccc(Oc2cnc(C(=O)N3CCN(c4ccc(N)nc4)CC3)cc2OC)cc1 [Compound 12, [4-(6-Amino-pyridin-3-yl)-piperazin-1-yl]-[4-methoxy-5-(4-methoxy-phenoxy)-pyridin-2-yl]-methanone]	7.57
COc1cc(C(=O)N2CCC(c3cnc(N)cc3OC)CC2)ncc1OC[C@H]1C[C@H](C(F)(F)F)C1 [Compound 92, TFA salt of 4-Methoxy-5-[1-(4-methoxy-5-{[3-(trifluoromethyl)-cyclobutyl]methoxy}-pyridine-2-carbonyl)piperidin-4-yl]pyridin-2-amin]	6.20
COc1cc(C(=O)N2CCN(c3cnc(N)cc3C)C[C@@H]2CO)ncc1Oc1ccccc1 [Compound 18, [(R)-4-(6-Amino-4-methyl-pyridin-3-yl)-2-hydroxymethyl-piperazin-1-yl]-(4-methoxy-5-phenoxy-pyridin-2-yl)-methanone]	7.51
COc1cc(C(=O)N2CCC(c3cnc(N)cc3OC)CC2)ncc1OC1CCCC1 [Compound 35, (6-Amino-4-methoxy-3′,4′,5′,6′-tetrahydro-2′H-[3,4′]bipyridinyl-1′-yl)-(5-cyclopentyloxy-4-methoxy-pyridin-2-yl)-methanone]	7.03
COc1cc(C(=O)N2C3CCC2CN(c2cnc(N)cc2OC)C3)ncc1Oc1ccccc1 [Compound 51, [3-(6-Amino-4-methoxy-pyridin-3-yl)-3,8-diaza-bicyclo[3.2.1]oct-8-yl]-(4-methoxy-5-phenoxy-pyridin-2-yl)-methanone]	6.54
COc1cc(C(=O)N2CCN(c3cnc(N)cc3OC)C[C@@H]2CO)ncc1Oc1ccccc1 [Compound 69, [(R)-4-(6-Amino-4-methoxy-pyridin-3-yl)-2-hydroxymethyl-piperazin-1-yl]-(4-methoxy-5-phenoxy-pyridin-2-yl)-methanone]	6.20
COc1cc(C(=O)N2CCC(c3ccc(N)nn3)CC2)ncc1OCC(C)C [Compound 36, [4-(6-Amino-pyridazin-3-yl)-piperidin-1-yl]-(5-isobutoxy-4-methoxy-pyridin-2-yl)-methanone]	7.01

Second part, the compound after the results:

pIC50	Compound
6.12	CCOc1cc(C(=O)N2CCC(c3ccc(N)nn3)CC2)ncc1Oc1ccc(F)cc1 [Compound 88, [4-(6-Amino-pyridazin-3-yl)-piperidin-1-yl]-[5-(4-fluoro-phenoxy)-4-ethoxy-pyridin-2-yl]-methanone]
6.96	COc1cc(C(=O)N2CCC(c3nnc(N)cc3C)CC2)ncc1Oc1ccc(F)cc1 [Compound 29, 6-{-[5-(4-Fluorophenoxy)-4-methoxypyridine-2-carbonyl]piperidin-4-yl}-5-methylpyridazin-3-amine trifluoroacetic acid]
6.08	COc1ccc(Oc2cnc(C(=O)N3CCC(c4nnc(N)cc4OC)CC3)cc2OC)cc1 [Compound 66, [4-(6-Amino-4-methoxy-pyridazin-3-yl)-piperidin-1-yl]-[4-methoxy-5-(4-methoxy-phenoxy)-pyridin-2-yl]-methanone]
6.46	CCCOc1cc(N)ncc1C1CCN(C(=O)c2cc(OC)c(Oc3ccccc3)cn2)CC1 [Compound 86, (6-Amino-4-propoxy-3′,4′,5′,6′-tetrahydro-2′H-[3,4′]bipyridinyl-1′-yl)-[5-(phenoxy)-4-methoxy-pyridin-2-yl]-methanone]
7.17	COc1cc(C(=O)N2CCC(c3cnc(N)cc3OC)CC2)ncc1Oc1ccc(C(F)(F)F)cc1 [Compound 24, (6-Amino-4-methoxy-3′,4′,5′,6′-tetrahydro-2′H-[3,4′]bipyridinyl-1′-yl)-[4-methoxy-5-(4-trifluoromethyl-phenoxy)-pyridin-2-yl]-methanone]
7.37	COc1cc(C(=O)N2CCC(c3cc(OC)c(N)nn3)CC2)ncc1Oc1ccccc1 [Compound 21, [4-(6-Amino-5-methoxy-pyridazin-3-yl)-piperidin-1-yl]-(4-methoxy-5-phenoxy-pyridin-2-yl)-methanone]
6.21	CCOc1cc(N)nnc1C1CCN(C(=O)c2cc(OC)c(Oc3ccc(C(F)(F)F)cc3)cn2)CC1 [Compound 87]
6.08	CCOc1cnc(C(=O)N2CCC(c3cnc(N)cc3OC)CC2)cc1OC [Compound 65, (6-Amino-4-methoxy-3′,4′,5′,6′-tetrahydro-2′H-[3,4′]bipyridinyl-1′-yl)-(5-ethoxy-4-methoxy-pyridin-2-yl)-methanone]
6.66	COc1cc(C(=O)N2CCC(c3ccc(N)nn3)CC2)ncc1Oc1ccc(OC(F)F)cc1 [Compound 54, [4-(6-Amino-pyridazin-3-yl)-piperidin-1-yl]-[5-(4-difluoromethoxy-phenoxy)-4-methoxy-pyridin-2-yl]-methanone]
6.49	CCOc1cc(N)nnc1C1CCN(C(=O)c2cc(OC)c(Oc3ccccc3)cn2)CC1 [Compound 85, [4-(6-Amino-4-ethoxy-pyridazin-3-yl)-piperidin-1-yl]-[4-methoxy-5-(phenoxy)-pyridin-2-yl]-methanone]
